Assay results taken from patent publication US9215868B2, “Low-foam preparations for crop protection” (Bayer Intellectual Property GmbH, priority 2006, dated 2015).

Test system: leaves of monocotyledonous crop plants such as corn and dicotyledonous crop plants such as apples
Assay: Leaf penetration of water-soluble leaf fertilisers such as urea
Assay type: in vivo
Details: urea 0.1 to 2% in spray liquor, in presence of 0.05 to 1% of one of the alkyl ether sulfates according to the invention; within a number of days
Source text: In the case of foliar application of urea (0.1 to 2% in the spray liqour) to leaves of monocotyledonous crop plants such as corn and also to dicotyledonous crop plants such as apples, the rate of foliar uptake was increased within a number of days by a factor of at least two in the presence of 0.05 to 1% of one of the alkyl ether sulfates according to the invention.

## NC(N)=O [urea]
  factor of increase of rate of foliar uptake: at least two
